Test results as given in US11464787B2, “Composition comprising oleanolic acid acetate as active ingredient for preventing, alleviating, or treating renal toxicity induced by medicine” (Korea Research Institute of Bioscience and Biotechnology, priority 2016, dated 2022).

Experiments:
MCP-1 = assay: Kidney tissue MCP-1 mRNA expression by real-time PCR in cisplatin-induced nephrotoxicity model; format: in vivo, C57BL/6 male mice; details: cisplatin and oleanolic acid acetate (50 mg/Kg)-treated group
Description: (§1) For the experiment, the mice were kept under constant temperature (23±3° C.), humidity (55±15%) and light irradiation (7:00 to 19:00). After the purchase, the mice were stabilized in the SPF animal breeding room for 1 week and used in the experiment.
(§2) After the mouse sacrifice, kidneys were separated and homogenized by adding Trizol reagent (Invitrogen, Carlsbad, Calif., USA). To this, chloroform was added to extract RNA, and isopropanol was added to precipitate. After the RNA precipitate was washed with 75% ethanol, the RNA concentration and purity were measured with a 2100 Bioanalyzer System (Agilent Technologies, Santa Clara, Calif., USA), and Taqman reverse transcription reagents kit (Applied Biosystems, Foster City) was used to synthesize cDNA. The expression level of inflammatory factors was measured by real-time PCR using SYBR Green PCR master mix kit (Applied Biosystem, Foster City, Calif., USA).
(§3) In order to examine the expression levels of TNF-α and IL-6, inflammatory cytokines, COX-2, a prostaglandin E2 (PGE2) synthase involved in increasing the vascular permeability of the inflammatory response, and MCP-1, an inflammatory chemokine, Real-time PCR was performed on each gene.

IL-6 [1] = assay: Blood IL-6 by ELISA in cisplatin-induced nephrotoxicity model; format: in vivo, C57BL/6 male mice; details: cisplatin and oleanolic acid acetate (50 mg/Kg)-treated group, serum ELISA
Description: as §1
(§4) In order to measure inflammatory cytokines in the blood (TNF-α and IL-6), serum was separated and used from blood, and TNF-α and IL-6 were measured using a mouse ELISA kit (R&D system, Minneapolis, Minn., USA). ELISA color development was measured using a Varioskan™ LUX multimode microplate reader (Thermofisher, Sunnyvale, Calif., USA) at a wavelength of 450 nm.

TNF-α [2] = assay: Kidney tissue TNF-α mRNA expression by real-time PCR in cisplatin-induced nephrotoxicity model; format: in vivo, C57BL/6 male mice; details: cisplatin and oleanolic acid acetate (50 mg/Kg)-treated group
Description: as §1, §2, §3

peritoneal macrophages = assay: MTT assay cytotoxicity in mouse peritoneal macrophages; format: cell-based; details: for cell survival rate: maximum concentration of 1000 μg/ml, 24 hours
Description: For the isolation of peritoneal macrophage of mice, 3 ml of 3% thioglycollate medium was administered intraperitoneally to 5-6 week old ICR male mice (Oriental Bio, Seoul, Korea). After 3 days, 6 ml to 7 ml of PBS was administered intraperitoneally, followed by a massage of peritoneal cavity to collect the peritoneal fluid. The collected peritoneal fluid was centrifuged and suspended in RPMI (10% FBS, 1% antibiotics), transferred to a plate, and stabilized at 37° C. for 2 hours.
(§5) The absorbance thereof was measured at 570 nm.

[3] = system: cisplatin-induced nephrotoxicity; assay: Cisplatin-induced nephrotoxicity animal model: body weight, kidney weight, death rate, BUN; format: in vivo, C57BL/6 male mice
Description: as §1
After the mouse sacrifice, the body weight was measured, the kidney was isolated, the blood was collected from the heart, and the blood urea nitrogen (BUN), a biochemical indicator related to nephrotoxicity, was measured. The collected mouse blood was centrifuged at 3000 rpm and 4° C. for 15 minutes using a centrifuge to separate the only serum, and the BUN was measured using an automatic analyzer (Fuji Dry-Chem NX500i, Tokyo, Japan).
The death rate was expressed as a percentage by dividing the number of mice killed in each group by the total number of mice.

TNF-α [4] = assay: Blood TNF-α by ELISA in cisplatin-induced nephrotoxicity model; format: in vivo, C57BL/6 male mice; details: cisplatin and oleanolic acid acetate (50 mg/Kg)-treated group, serum ELISA
Description: as §1, §4

spleen cells = assay: MTT assay cytotoxicity in mouse spleen cells; format: cell-based; details: all concentrations (100, 300, and 600 μg/ml)
Description: For the isolation of mouse spleen cells, 5-6 week old ICR male mice (Oriental Bio, Seoul, Korea) were sacrificed with CO2 and then their spleen was aseptically extracted. The spleen was ground with a filter to separate single spleen cells, centrifuged using centrifugation, and erythrocytes were dissolved using ficoll. Cells from which erythrocytes had been removed were stabilized with RPMI (10% FBS, 1% antibiotics) at 37° C. for 2 hours.
as §5

HEK-293T cells = assay: MTT assay cytotoxicity in HEK-293T human embryonic kidney cells; details: for cell survival rate: HEK-293T, highest concentration of 1000 μg/ml, 24 hours
Description: HEK-293T cells, human embryonic kidney cells, were cultured in Dulbecco's modified eagle medium (Cat No. 12800-017, Gibco, USA) supplemented with heat-inactivated 10% FBS.
The survival rate of cultured cells was measured by MTT reduction method. As an MTT solution, formazan was formed by mitochondrial dehydrogenases in living cells to confirm cell viability. […] After 24 hours, 20 μl of MTT solution was added to each well, followed by further culturing for 2 hours. Then, the culture solution was removed, and 100 μl of dimethylsulfoxide was added thereto. The absorbance thereof was measured at 570 nm.

COX-2 = assay: Kidney tissue COX-2 mRNA expression by real-time PCR in cisplatin-induced nephrotoxicity model; format: in vivo, C57BL/6 male mice; details: cisplatin and oleanolic acid acetate (50 mg/Kg)-treated group
Description: as §1, §2, §3

IL-6 [5] = assay: Kidney tissue IL-6 mRNA expression by real-time PCR in cisplatin-induced nephrotoxicity model; format: in vivo, C57BL/6 male mice; details: cisplatin and oleanolic acid acetate (50 mg/Kg)-treated group
Description: as §1, §2, §3

Row | SMILES | amount of mRNA expression of MCP-1 (MCP-1) | IL-6 in the blood (IL-6 [1]) | amount of mRNA expression of TNF-α (TNF-α [2]) | cytotoxicity (in words) (peritoneal macrophages) | cell survival rate (peritoneal macrophages) | death rate ([3]; cisplatin 20 mg/kg i.p. and oleanolic acid acetate 50 mg/Kg orally, mice) | BUN value ([3]; cisplatin and oleanolic acid acetate (50 mg/Kg oral)-treated group, serum, day 5, vs cisplatin group) | TNF-α in the blood (TNF-α [4]) | cell survival rate compared with oleanolic acid (in words) (spleen cells) | cell survival rate (HEK-293T cells) | cytotoxicity (in words) (HEK-293T cells; human kidney cell lines, compared with oleanolic acid) | amount of mRNA expression of COX-2 (COX-2) | amount of mRNA expression of IL-6 (IL-6 [5])
1 | CC(=O)O[C@H]1CC[C@@]2(C)C(CC[C@]3(C)[C@@H]2CC=C2[C@H]4CC(C)(C)CC[C@]4(C(=O)O)CC[C@]23C)C1(C)C (stereo partly drawn) [oleanolic acid acetate, 4aS,6aR,6aS,6bR,8aR,10S,12aR,14bS-10-hydroxy-2,2,6a,6b,9,9,12a-heptamethyl-1,3,4,5,6,6a,7,8,8a,10,11,12,13,14b-tetradecahydropicene-4a-carboxylic acid acetate] | decreased | decreased | decreased | almost no cytotoxicity | 81% | 44% | decreased | decreased | higher cell survival rate than that of oleanolic acid | 43% | concentration-dependently less than that of oleanolic acid | decreased | decreased
2 | CC1(C)CC[C@]2(C(=O)O)CC[C@]3(C)C(=CC[C@@H]4[C@@]5(C)CC[C@H](O)C(C)(C)[C@@H]5CC[C@]43C)[C@@H]2C1 [oleanolic acid] | – | – | – | cytotoxicity in a concentration-dependent manner | 41% | – | – | – | – | 27% | – | – | –
